Assays:
[1] = tested on: VLPs coated with VSV envelope protein; type: biochemical, Ebola virus
[2] = tested on: lentiviruses coding EGFP and coated with FuG-C hybrid envelope protein; type: cell-based
[3] = tested on: VLPs coated with Marburg virus envelope protein; type: biochemical, Ebola virus
[4] = tested on: equine erythrocytes; conditions: pH 7.4
[5] = tested on: human erythrocytes; conditions: pH 7.4

## GALA
[1]
  virolytic activity on enzymatic VLPs: moderate virolytic activity
[2]
  concentrations that effectively block the virus entry: above 5 μM
  inhibitory effect on lentivirus infectivity: remarkably potent inhibitor
[3]
  virolytic activity on enzymatic VLPs: moderate virolytic activity

## Hecate
[2]
  inhibitory effect on lentivirus infectivity: substantial antiviral effect
[4]
  hemolytic activity: virtually no effect on equine RBCs
[5]
  hemolytic activity: moderately lyse human erythrocytes

## WEAKLAKALAKALAKHLAKALAKALKACEA
[2]
  amount of produced GFP (GFP fluorescence of cell lysates): might slightly increase the amount of produced GFP but the increase is not significant
  inhibitory effect on lentivirus infectivity: substantial antiviral effect
[4]
  hemolytic activity: moderate hemolytic activity
[5]
  hemolytic activity: moderate hemolytic activity
